Source: patent US20230085307A1, “PYRIDAZINONE COMPOUND AND HERBICIDE” (NISSAN CHEMICAL CORPORATION, priority 2019, published 2023)

How the values were obtained:
Chinese sprangletop = assay: Test Example 3: herbicidal effect by foliage application, Wagner pot (Table 18, symbol D); type: in vivo, chinese sprangletop (Leptochloa chinensis); conditions: 320 g/ha
Outline: (§1)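 Plants were sown in alluvial soil held under 0.1–0.5 cm standing water and grown 14 days in a greenhouse at 25–30 °C. An emulsifiable formulation, water-diluted to the set dose, was then sprayed onto the foliage, and effects were scored three weeks later using previously defined criteria.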

chickweed [1] = assay: Test Example 5: herbicidal effect by foliage application, plastic box (Table 20, symbol P); type: in vivo, common chickweed (Stellaria media); conditions: foliage application, 320 g/ha, three weeks after application
Outline: (§2)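 Post-emergence foliar test in sterilized diluvial soil. Compound applied as water-diluted emulsion at a predetermined rate to 14-day-old plants; evaluation at three weeks.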

persian speedwell [2] = assay: Test Example 5: herbicidal effect by foliage application, plastic box (Table 20, symbol R); type: in vivo, Persian speedwell (Veronica persica); conditions: foliage application, 320 g/ha, three weeks after application
Outline: as §2

blackgrass [3] = assay: Test Example 4: herbicidal effect by soil treatment (Table 19, symbol J); type: in vivo, blackgrass (Alopecurus myosuroides); conditions: amount of applied herbicide 320 g/ha
Outline: (§3)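 Emulsion of test compound, water-diluted to predetermined amount, sprayed on soil after sowing (seed depth ~1.5 cm, sterilized diluvial soil). Greenhouse, 25–30° C. Effect graded at three weeks post-spray.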

southern crabgrass [4] = assay: Test Example 5: herbicidal effect by foliage application, plastic box (Table 20, symbol F); type: in vivo, southern crabgrass (Digitaria ciliaris); conditions: foliage application, 320 g/ha, three weeks after application
Outline: as §2

rice flat sedge = assay: Test Example 3: herbicidal effect by foliage application, Wagner pot (Table 18, symbol E); type: in vivo, rice flat sedge (Cyperus iria); conditions: 320 g/ha
Outline: as §1

false cleavers [5] = assay: Test Example 5: herbicidal effect by foliage application, plastic box (Table 20, symbol Q); type: in vivo, false cleavers (Galium spurium); conditions: foliage application, 320 g/ha, three weeks after application
Outline: as §2

barnyard grass [6] = assay: Test Example 3: herbicidal effect by foliage application, Wagner pot (Table 18, symbol H); type: in vivo, barnyard grass (Echinochloa crus-galli); conditions: 320 g/ha
Outline: as §1

redroot pigweed [7] = assay: Test Example 4: herbicidal effect by soil treatment (Table 19, symbol N); type: in vivo, redroot pigweed (Amaranthus retroflexus); conditions: amount of applied herbicide 320 g/ha
Outline: as §3

velvetleaf [8] = assay: Test Example 5: herbicidal effect by foliage application, plastic box (Table 20, symbol M); type: in vivo, velvetleaf (Abutilon theophrasti); conditions: foliage application, 320 g/ha, three weeks after application
Outline: as §2

green foxtail [9] = assay: Test Example 5: herbicidal effect by foliage application, plastic box (Table 20, symbol G); type: in vivo, green foxtail (Setaria viridis); conditions: foliage application, 320 g/ha, three weeks after application
Outline: as §2

wild oat [10] = assay: Test Example 5: herbicidal effect by foliage application, plastic box (Table 20, symbol I); type: in vivo, wild oat (Avena fatua); conditions: foliage application, 320 g/ha, three weeks after application
Outline: as §2

persian speedwell [11] = assay: Test Example 4: herbicidal effect by soil treatment (Table 19, symbol R); type: in vivo, Persian speedwell (Veronica persica); conditions: amount of applied herbicide 320 g/ha
Outline: as §3

Italian ryegrass [12] = assay: Test Example 5: herbicidal effect by foliage application, plastic box (Table 20, symbol K); type: in vivo, Italian ryegrass (Lolium multiflorum); conditions: foliage application, 320 g/ha, three weeks after application
Outline: as §2

velvetleaf [13] = assay: Test Example 4: herbicidal effect by soil treatment (Table 19, symbol M); type: in vivo, velvetleaf (Abutilon theophrasti); conditions: amount of applied herbicide 320 g/ha
Outline: as §3

lambsquarters [14] = assay: Test Example 5: herbicidal effect by foliage application, plastic box (Table 20, symbol O); type: in vivo, lambsquarters (Chenopodium album); conditions: foliage application, 320 g/ha, three weeks after application
Outline: as §2

blackgrass [15] = assay: Test Example 5: herbicidal effect by foliage application, plastic box (Table 20, symbol J); type: in vivo, blackgrass (Alopecurus myosuroides); conditions: foliage application, 320 g/ha, three weeks after application
Outline: as §2

Italian ryegrass [16] = assay: Test Example 4: herbicidal effect by soil treatment (Table 19, symbol K); type: in vivo, Italian ryegrass (Lolium multiflorum); conditions: amount of applied herbicide 320 g/ha
Outline: as §3

barnyard grass [17] = assay: Test Example 5: herbicidal effect by foliage application, plastic box (Table 20, symbol H); type: in vivo, barnyard grass (Echinochloa crus-galli); conditions: foliage application, 320 g/ha, three weeks after application
Outline: as §2

windgrass [18] = assay: Test Example 4: herbicidal effect by soil treatment (Table 19, symbol L); type: in vivo, windgrass (Apera spica-venti); conditions: amount of applied herbicide 320 g/ha
Outline: as §3

green foxtail [19] = assay: Test Example 4: herbicidal effect by soil treatment (Table 19, symbol G); type: in vivo, green foxtail (Setaria viridis); conditions: amount of applied herbicide 320 g/ha
Outline: as §3

southern crabgrass [20] = assay: Test Example 4: herbicidal effect by soil treatment (Table 19, symbol F); type: in vivo, southern crabgrass (Digitaria ciliaris); conditions: amount of applied herbicide 320 g/ha
Outline: as §3

windgrass [21] = assay: Test Example 5: herbicidal effect by foliage application, plastic box (Table 20, symbol L); type: in vivo, windgrass (Apera spica-venti); conditions: foliage application, 320 g/ha, three weeks after application
Outline: as §2

chickweed [22] = assay: Test Example 4: herbicidal effect by soil treatment (Table 19, symbol P); type: in vivo, common chickweed (Stellaria media); conditions: amount of applied herbicide 320 g/ha
Outline: as §3

barnyard grass [23] = assay: Test Example 4: herbicidal effect by soil treatment (Table 19, symbol H); type: in vivo, barnyard grass (Echinochloa crus-galli); conditions: amount of applied herbicide 320 g/ha
Outline: as §3

lambsquarters [24] = assay: Test Example 4: herbicidal effect by soil treatment (Table 19, symbol O); type: in vivo, lambsquarters (Chenopodium album); conditions: amount of applied herbicide 320 g/ha
Outline: as §3

wild oat [25] = assay: Test Example 4: herbicidal effect by soil treatment (Table 19, symbol I); type: in vivo, wild oat (Avena fatua); conditions: amount of applied herbicide 320 g/ha
Outline: as §3

redroot pigweed [26] = assay: Test Example 5: herbicidal effect by foliage application, plastic box (Table 20, symbol N); type: in vivo, redroot pigweed (Amaranthus retroflexus); conditions: foliage application, 320 g/ha, three weeks after application
Outline: as §2

false cleavers [27] = assay: Test Example 4: herbicidal effect by soil treatment (Table 19, symbol Q); type: in vivo, false cleavers (Galium spurium); conditions: amount of applied herbicide 320 g/ha
Outline: as §3

## COc1cc(Cl)ccc1-c1sc2ccccc2c1-c1c(O)c(C)nn(C)c1=O [1-060]
Chinese sprangletop
  herbicidal effect on D (Chinese sprangletop), rating 0-5: 3 (Herbicidal rate of 40% or more and less than 70%)
Chickweed [1]
  herbicidal effect grade, P: chickweed: 5 (Herbicidal rate of 90% or more (almost completely withered))
Persian speedwell [2]
  herbicidal effect grade, R: persian speedwell: 5 (Herbicidal rate of 90% or more (almost completely withered))
Blackgrass [3]
  herbicidal effect rating, J: blackgrass: 0 (Herbicidal rate of 5% or less (almost no effect))
Southern crabgrass [4]
  herbicidal effect grade, F: southern crabgrass: 3 (Herbicidal rate of 40% or more and less than 70%)
Rice flat sedge
  herbicidal effect on E (rice flat sedge), rating 0-5: 4 (Herbicidal rate of 70% or more and less than 90%)
False cleavers [5]
  herbicidal effect grade, Q: false cleavers: 5 (Herbicidal rate of 90% or more (almost completely withered))
Barnyard grass [6]
  herbicidal effect on H (barnyard grass), rating 0-5: 4 (Herbicidal rate of 70% or more and less than 90%)
Redroot pigweed [7]
  herbicidal effect rating, N: redroot pigweed: 0 (Herbicidal rate of 5% or less (almost no effect))
Velvetleaf [8]
  herbicidal effect grade, M: velvetleaf: 3 (Herbicidal rate of 40% or more and less than 70%)
Green foxtail [9]
  herbicidal effect grade, G: green foxtail: 3 (Herbicidal rate of 40% or more and less than 70%)
Wild oat [10]
  herbicidal effect grade, I: wild oat: 3 (Herbicidal rate of 40% or more and less than 70%)
Persian speedwell [11]
  herbicidal effect rating, R: persian speedwell: 5 (Herbicidal rate of 90% or more (almost completely withered))
Italian ryegrass [12]
  herbicidal effect grade, K: Italian ryegrass: 3 (Herbicidal rate of 40% or more and less than 70%)
Velvetleaf [13]
  herbicidal effect rating, M: velvetleaf: 0 (Herbicidal rate of 5% or less (almost no effect))
Lambsquarters [14]
  herbicidal effect grade, O: lambsquarters: 5 (Herbicidal rate of 90% or more (almost completely withered))
Blackgrass [15]
  herbicidal effect grade, J: blackgrass: 3 (Herbicidal rate of 40% or more and less than 70%)
Italian ryegrass [16]
  herbicidal effect rating, K: Italian ryegrass: 0 (Herbicidal rate of 5% or less (almost no effect))
Barnyard grass [17]
  herbicidal effect grade, H: barnyard grass: 3 (Herbicidal rate of 40% or more and less than 70%)
Windgrass [18]
  herbicidal effect rating, L: windgrass: 1 (Herbicidal rate of 5% or more and less than 20%)
Green foxtail [19]
  herbicidal effect rating, G: green foxtail: 0 (Herbicidal rate of 5% or less (almost no effect))
Southern crabgrass [20]
  herbicidal effect rating, F: southern crabgrass: 0 (Herbicidal rate of 5% or less (almost no effect))
Windgrass [21]
  herbicidal effect grade, L: windgrass: 5 (Herbicidal rate of 90% or more (almost completely withered))
Chickweed [22]
  herbicidal effect rating, P: chickweed: 4 (Herbicidal rate of 70% or more and less than 90%)
Barnyard grass [23]
  herbicidal effect rating, H: barnyard grass: 0 (Herbicidal rate of 5% or less (almost no effect))
Lambsquarters [24]
  herbicidal effect rating, O: lambsquarters: 0 (Herbicidal rate of 5% or less (almost no effect))
Wild oat [25]
  herbicidal effect rating, I: wild oat: 0 (Herbicidal rate of 5% or less (almost no effect))
Redroot pigweed [26]
  herbicidal effect grade, N: redroot pigweed: 3 (Herbicidal rate of 40% or more and less than 70%)
False cleavers [27]
  herbicidal effect rating, Q: false cleavers: 3 (Herbicidal rate of 40% or more and less than 70%)

## CCCC(=O)Oc1c(C)nn(C)c(=O)c1-c1c(-c2cc(C)c(OC)c(C)c2)sc2ccccc12 [1-075]
Chinese sprangletop
  herbicidal effect on D (Chinese sprangletop), rating 0-5: 0 (Herbicidal rate of 5% or less (almost no effect))
Chickweed [1]
  herbicidal effect grade, P: chickweed: 0 (Herbicidal rate of 5% or less (almost no effect))
Persian speedwell [2]
  herbicidal effect grade, R: persian speedwell: 5 (Herbicidal rate of 90% or more (almost completely withered))
Blackgrass [3]
  herbicidal effect rating, J: blackgrass: 0 (Herbicidal rate of 5% or less (almost no effect))
Southern crabgrass [4]
  herbicidal effect grade, F: southern crabgrass: 0 (Herbicidal rate of 5% or less (almost no effect))
Rice flat sedge
  herbicidal effect on E (rice flat sedge), rating 0-5: 5 (Herbicidal rate of 90% or more (almost completely withered))
False cleavers [5]
  herbicidal effect grade, Q: false cleavers: 0 (Herbicidal rate of 5% or less (almost no effect))
Barnyard grass [6]
  herbicidal effect on H (barnyard grass), rating 0-5: 3 (Herbicidal rate of 40% or more and less than 70%)
Redroot pigweed [7]
  herbicidal effect rating, N: redroot pigweed: 0 (Herbicidal rate of 5% or less (almost no effect))
Velvetleaf [8]
  herbicidal effect grade, M: velvetleaf: 0 (Herbicidal rate of 5% or less (almost no effect))
Green foxtail [9]
  herbicidal effect grade, G: green foxtail: 0 (Herbicidal rate of 5% or less (almost no effect))
Wild oat [10]
  herbicidal effect grade, I: wild oat: 0 (Herbicidal rate of 5% or less (almost no effect))
Persian speedwell [11]
  herbicidal effect rating, R: persian speedwell: 3 (Herbicidal rate of 40% or more and less than 70%)
Italian ryegrass [12]
  herbicidal effect grade, K: Italian ryegrass: 3 (Herbicidal rate of 40% or more and less than 70%)
Velvetleaf [13]
  herbicidal effect rating, M: velvetleaf: 0 (Herbicidal rate of 5% or less (almost no effect))
Lambsquarters [14]
  herbicidal effect grade, O: lambsquarters: 0 (Herbicidal rate of 5% or less (almost no effect))
Blackgrass [15]
  herbicidal effect grade, J: blackgrass: 0 (Herbicidal rate of 5% or less (almost no effect))
Italian ryegrass [16]
  herbicidal effect rating, K: Italian ryegrass: 0 (Herbicidal rate of 5% or less (almost no effect))
Barnyard grass [17]
  herbicidal effect grade, H: barnyard grass: 0 (Herbicidal rate of 5% or less (almost no effect))
Windgrass [18]
  herbicidal effect rating, L: windgrass: 0 (Herbicidal rate of 5% or less (almost no effect))
Green foxtail [19]
  herbicidal effect rating, G: green foxtail: 0 (Herbicidal rate of 5% or less (almost no effect))
Southern crabgrass [20]
  herbicidal effect rating, F: southern crabgrass: 0 (Herbicidal rate of 5% or less (almost no effect))
Windgrass [21]
  herbicidal effect grade, L: windgrass: 0 (Herbicidal rate of 5% or less (almost no effect))
Chickweed [22]
  herbicidal effect rating, P: chickweed: 0 (Herbicidal rate of 5% or less (almost no effect))
Barnyard grass [23]
  herbicidal effect rating, H: barnyard grass: 1 (Herbicidal rate of 5% or more and less than 20%)
Lambsquarters [24]
  herbicidal effect rating, O: lambsquarters: 0 (Herbicidal rate of 5% or less (almost no effect))
Wild oat [25]
  herbicidal effect rating, I: wild oat: 0 (Herbicidal rate of 5% or less (almost no effect))
Redroot pigweed [26]
  herbicidal effect grade, N: redroot pigweed: 3 (Herbicidal rate of 40% or more and less than 70%)
False cleavers [27]
  herbicidal effect rating, Q: false cleavers: 0 (Herbicidal rate of 5% or less (almost no effect))
